Here are results for 1 molecule from patent publication US20190167676A1, “METHODS FOR IMPROVING RESISTANCE TO SKELETAL MUSCLE FATIGUE” (Cytokinetics, Inc., priority 2012, published 2019).

In experiment [1] the test system is rat FDB muscle. Kind of experiment: Isometric tension force/frequency in rat FDB muscle in vitro. Particulars: 10 μM, FIG. 1. Here is the method: Adult male Sprague-Dawley rats (Charles River) between 250 and 300 g were anesthetized with a mixture of isoflurane gas and oxygen and quickly euthanized by cardiac excision. Hind feet were quickly removed at the ankle and placed in oxygenated Krebs solution at 4° C. (composition: 1 mM NaH2PO4, 5 mM KCl, 2 mM CaCl2, 1 mM MgSO4, 137 mM NaCl, 11 mM glucose and 1 mM NaHCO3). Feet were then pinned out in fresh oxygenated Krebs buffer at room temperature and the skin from the sole of the foot removed with scissors. In rats, a small branch of the main flexor digitorum brevis (FDB) muscle extends from the heel of the foot to the little digit. This was dissected free with small scissors and the tendons at each end of the muscle were cut. The muscle was pinned out in Krebs solution and the surrounding fascia removed. Silk thread was tied with a small loop and then knotted on to the end of each tendon, creating a silk loop at each end of the muscle. This was then hooked on to the fixed lever arm and force transducer of an 801A in vitro analysis system (Aurora Scientific, Ontario, Canada) and perfused with Krebs solution at 30° C.
The effect of 10 μM of Compound A on the force/frequency relationship was measured.

Experiment [2] has as its system rat FDB muscle. Kind of experiment: Isometric fatigue protocol in isolated rat FDB muscle. Particulars: 5 μM. Here is the method: The isometric fatigue protocol was based on published studies (Germinario et al, 2004). Isolated rat FDB muscles were incubated at 4° C. with either 0.1% DMSO Krebs buffer or buffer containing 5 μM Compound A for 30 minutes. The tissues were then transferred to an isometric force transducer at 30° C. with the same concentration of DMSO or Compound A. Muscles were stimulated via field electrodes with supra maximal voltage to tetanus (120 Hz stimulation, 1 ms pulses, 350 ms duration) every minute and the length adjusted to achieve maximal tension development (Lo) which was recorded. The stimulation frequency was adjusted to achieve 50% of maximal force for each tissue: The average stimulation frequency required to achieve FMax 50% (mean +/− sd) for 0.1% DMSO was: 32.4 +/− 3.3 Hz, and for 5 μM Compound A it was 20.5 +/− 4.9 Hz. The muscles were then stimulated every six seconds for 15 minutes with field electrodes (1 ms stimulus, 350 ms trains) which produced a rapid drop in developed force over the course of 900 seconds for both the control fibers and Compound A fibers, with the control group showing a greater and more rapid drop in tension than the Compound A group.

In another experiment the test system is rat EDL muscle. In words: Fatigue in rat EDL muscle following femoral artery ligation (FAL). Particulars: for average stimulation frequency for force production similar to pre-dose: vehicle 30 Hz. In kind it is in vivo. From the text: Rats were placed under anesthesia using isoflurane and the skin around the experimental leg was removed. The distal end of the EDL muscle and its associated tendon were then isolated. The rat was then placed on the platform of an Aurora in-situ muscle analysis rig (806C), maintained at body temperature via a circulating water system. The knee was immobilized in a clamp between two sharpened screws and the distal tendon cut and tied to the arm of a force transducer (Aurora Scientific, Ontario, Canada) using a silk suture. The muscle was stimulated directly via the peroneal nerve. For isolation of the nerve, a 1 cm incision was made at the upper thigh and the overlying gastrocnemius muscle was cut to expose an approximate 5 mm stretch of the peroneal nerve. This was then dissected free of surrounding connective tissue and a pair of stainless steel needle electrodes (0.10 mm) were hooked around the exposed nerve. Muscle contractile properties were assessed by applying an electrical current to the nerve and recording the force generated by the muscle via a servomotor. The muscle length was adjusted to produce the maximum isometric force (Lo) after sub-maximal stimulation (30 Hz, 1 ms pulses, 350 ms train duration). Once Lo had been established, the nerve was stimulated every 2 minutes with a 30 Hz train (1 ms stimuli, 350 ms duration) for the course of the experiment. This preparation was stable for 4-6 hours.
With the rat in situ EDL muscle preparation described in Example 3, a fatiguing protocol was utilized where muscle was stimulated for 600 seconds. Vehicle-treated muscle was electrically stimulated at 30 Hz while the stimulation frequency was reduced in Compound A treated rats to ensure similar force production to pre-dose levels, prior to femoral artery ligation (average stimulation frequency of 29 and 26Hz, for 0.5 mg/kg and 1 mg/kg Compound A, respectively). This protocol produced a robust and reproducible fatigue in EDL muscle following femoral artery ligation, with a transient increase to 136.0±6.8% of initial force over the first 90-100 seconds, followed by a rapid drop in force before stabilization at approximately 40% of initial force. The initial rise in tension is believed to be due to Pi-induced increases in free intracellular Ca^2+ due to inhibition of sarco(endo)plasmic reticulum Ca^2+-ATPases (SERCAs) pumping into the SR (Allen, Physiol Rev 88:287-332, 2008). Following ligation of the femoral artery (R. A. Challiss et al. Biochem J. 1986 Dec. 1; 240(2):395-401) Compound A was administered in solution (50% PEG300/10% EtOH/40% Cavitron formulation) via a jugular vein catheter as a single slow bolus over a 2 min period.
Time for force to decrease to 50% of initial force was lengthened from 259±30 seconds to […] (P<0.0001, T-test).

Experiment [3] relates to patients with peripheral artery disease and claudication. Kind of experiment: Bilateral heel raise test, Phase II study. In kind it is in vivo, human. How it is done:
This study was a double-blind, randomized, placebo-controlled, three-period cross-over, hypothesis generating Phase II study in patients with peripheral artery disease and claudication. […] Secondary objectives included (a) evaluation and characterization of the relationship, if any, between the doses and plasma concentrations of Compound A and its pharmacodynamic effects, and (b) evaluation of the safety and tolerability of Compound A administered as single doses.
Single doses of each of 375 mg Compound A, 750 mg Compound A and placebo were administered in random order with a 6 to 10 day wash out between each dose. […] Results were analyzed using a repeated-measures ANCOVA with treatment, sequence, period, baseline, and patient in the model. […]
In the bilateral heel raise test, the lateral aspect of the ankle on the dominant leg was instrumented with an electromechanical goniometer connected to a PC-based data collection system to monitor and record ankle angle position and range of motion (Noraxon U.S.A., Inc., Scottsdale, Ariz.). […] The total number of heel raises, time, and a calculated index of work performed were assessed from the beginning of test to the onset of claudication and to maximal exercise. An index of work performed was calculated as follows: Heel Raise Work Index (HRWI)=(sinθ°*foot length)*body mass.

Setting [4] is: stimulated every six seconds for 15 minutes.

As to `C#Cc1cnc2nc(O)n(C(CC)CC)c2n1` [Compound A, 6-ethynyl-1-(pentan-3-yl)-1H-imidazo[4,5-b]pyrazin-2-ol], the “sub-maximal force development (force/frequency relationship)” value with rat FDB muscle [1] is reported as “increased sub-maximal force development”. In the experiment with rat FDB muscle [2], the “average stimulation frequency required to achieve FMax 50% (mean +/- sd)” value is reported as 20.5 +/− 4.9 Hz. In addition, in the experiment on rat FDB muscle [2] (setting [4]), the “force at 900 seconds, % of fMax” value was determined as 28.4±1.2 % f Max and the “force at 900 seconds, % of initial tension” value was 53.9±2.1 % of initial tension. In addition, the “average stimulation frequency for force production similar to pre-dose” value with rat EDL muscle (0.5 mg/kg) is listed as 29 Hz. For the same molecule, in the experiment with rat EDL muscle (1 mg/kg), the “average stimulation frequency for force production similar to pre-dose” value was found to be 26 Hz. In the experiment on rat EDL muscle (FAL rats), the “time of rise to initial increase in force” value lay within 160 to 170 s. In addition, the “time to fatigue and tension-generating capacity” value in the experiment on rat EDL muscle (FAL rats vs vehicle, FIG. 5) was “dose-dependent increase”. The “initial increase in force” value in the experiment with rat EDL muscle (FAL rats, jugular vein bolus) was 156.3±10.4 % of initial force. Besides, the “time for force to decrease to 50% of initial force” value in the experiment with rat EDL muscle (FAL rats, vehicle 259±30) was found to be 752 ± 64 s. Also, the “relationship between plasma concentrations and outcomes in the Heel Raise Test” value in experiment [3] (PK/PD analysis, FIG. 14) is “strong positive relationship”. In addition, the “calf muscle performance by heel raise testing” value in experiment [3] (single doses 375, 500, 750 mg, 3 and 6 hours after dosing) is recorded as “increased calf muscle performance”.
